# From patent publication US6989397B1, “Iron chelators and uses thereof” (University of Queensland, priority 1999, dated 2006)
# pIC50: −log10 of the molar value.
# Tested on: SK-N-MC neuroepithelioma cells
# Assay: 59Fe release from prelabelled cells (iron efflux)
# Assay type: cell-based, human
# Settings: 3 hr labelling, 3 hr reincubation, ligands 50 μM, DFO 100 μM, FIG. 2A screening experiment
# Description: (§1) The effect of chelators on ^59Fe uptake from ^59Fe-Tf and ^59Fe release from prelabelled cells was studied using standard procedures reported previously (Richardson et al., 1994, J. Lab Clin. Med. 124 660–71). The amount of ^59Fe internalized by the cells was measured by incubation with the general protease pronase (1 mg/ml) for 30 min at 4° C. to remove membrane-bound ^59Fe and Tf (Richardson et al., 1990; Baker et al., 1998, Biochim. Biophys. Acta 1380 21–30).
# The efflux of ^59Fe from SK-N-MC cells was examined after a 3 hr labelling period with ^59Fe-Tf (0.75 μM) followed by a 3 hr reincubation in the presence and absence of DFO (100 μM) or the remainder of the ligands at 50 μM (FIG. 2A).
# (§2) Table 1. The effect of DFO, 311, PCTH, PCBH, or PCBHH on ^59Fe release from BE-2 neuroblastoma cells, SK-N-MC neuroepithelioma cells, and SK-Mel-28 melanoma cells. Cells were labeled for 3 h at 37° C. with ^59Fe-transferrin (0.75 μM), washed, and then reincubated with the chelators for 3 h at 37° C. […] Results are Mean±SD of three determinations in a typical experiment.
row,Structure (SMILES),release of cellular 59Fe (FIG. 2A)
1,"CC(=O)N(O)CCCCCNC(=O)CCC(=O)N(O)CCCCCNC(=O)CCC(=O)N(O)CCCCCN [DFO, desferrioxamine, reference compound]",19%
2,"O=C(NN=Cc1ccco1)c1ccncc1 [FIH, 2furoylcarboxaldehyde isonicotinoyl hydrazone]",did not appreciably increase

# Same assay, conditions: labelled 3 h with 59Fe-transferrin 0.75 μM, reincubated 3 h at 37° C., chelators 50 μM, DFO 100 μM, Mean±SD
row,Structure (SMILES),% Cellular Iron Released
1,"O=C(NN=Cc1c(O)ccc2ccccc12)c1ccncc1 [Chelator 311, 2-hydroxy-1-naphthylaldehyde isonicotinoyl hydrazone, reference compound]",49 ± 1%
2,"CC(=O)N(O)CCCCCNC(=O)CCC(=O)N(O)CCCCCNC(=O)CCC(=O)N(O)CCCCCN [DFO, desferrioxamine, reference compound]",18 ± 3%
3,"O=C(NN=Cc1ccccn1)c1ccccc1 [PCBH, 2-pyridylcarboxaldehyde benzoyl hydrazone]",47 ± 3%
4,"O=C(NN=Cc1ccccn1)c1cccs1 [PCTH, 2-pyridylcarboxaldehyde 2-thiophenecarboxyl hydrazone]",51 ± 5%

# Tested on: SK-N-MC neuroepithelioma cells
# Assay: cellular proliferation, MTT assay
# Assay type: cell-based, human
# Settings: 90 h incubation, chelators 0.39–50 μM, read-out: IC50, inhibition of growth of SK-N-MC cells
# Description: FIG. 4. The effect of chelator concentration on the proliferation of SK-N-MC neuroepithelioma cells. Cells were incubated in the presence and absence of the chelators (0–50 μM) for 90 h at 37° C. After this incubation period, cellular density was measured via the MTT assay. Each data point represents the mean of four replicates in a typical experiment of two experiments performed.
# The effects of the chelators on the proliferation of SK-N-MC neuroepithelioma cells were examined using the MTT (3-(4,5-dimethylthiazol-2-yl)-2,5-diphenyltetrazolium) assay by essentially the same method as described previously (Richardson et al., 1995). Cellular proliferation was examined by seeding cells in 96-well microtitre plates at 15,000 cells/well in 0.1 mL of complete medium containing human diferric Tf (1.25 μM). […] The cells were allowed to grow overnight and the chelators were then added in 0.1 mL of complete medium containing differic transferrin (1.25 μM). The final concentrations of the chelators were 0.39–50 μM. Control samples contained complete medium and diferric Tf (1.25 μM). Cells were incubated with the chelators for 90 hrs at 37° C. in a humidified atmosphere containing 95% air and 5% CO2. After this incubation, 0.01 mL of MTT was added to each well and the plates incubated for 2 hrs at 37° C. The cells were solubilized by adding 0.1 mL of 10% SDS-50% isobutanol in 0.01 M HCl and the plates were read at 570 nm on a scanning multiwell spectrophotometer (Titertek Multiscan; Beckman Instruments Inc., California). As shown previously for the SK-N-MC cell line, MTT colour formation was directly proportional to the number of viable cells (Richardson et al., 1995).
row,Structure (SMILES),pIC50
1,"O=C(NN=Cc1c(O)ccc2ccccc12)c1ccncc1 [Chelator 311, 2-hydroxy-1-naphthylaldehyde isonicotinoyl hydrazone, reference compound]",5.70
2,"O=C(NN=Cc1ccccn1)c1ccccc1 [PCBH, 2-pyridylcarboxaldehyde benzoyl hydrazone]",4.30

# Same assay, conditions: Homo sapiens, SK-N-MC, 90 h incubation, chelators 0.39–50 μM, read-out: IC50, inhibition of growth of SK-N-MC cells
row,Structure (SMILES),pIC50
1,"CC(=O)N(O)CCCCCNC(=O)CCC(=O)N(O)CCCCCNC(=O)CCC(=O)N(O)CCCCCN [DFO, desferrioxamine, reference compound]",4.33

# Tested on: SK-Mel-28 melanoma cells
# Assay: 59Fe release from prelabelled cells (iron efflux)
# Assay type: cell-based, human
# Settings: labelled 3 h with 59Fe-transferrin 0.75 μM, reincubated 3 h at 37° C., chelators 50 μM, DFO 100 μM, Mean±SD
# Description: as §1, §2
row,Structure (SMILES),% Cellular Iron Released
1,"O=C(NN=Cc1c(O)ccc2ccccc12)c1ccncc1 [Chelator 311, 2-hydroxy-1-naphthylaldehyde isonicotinoyl hydrazone, reference compound]",70 ± 1%
2,"CC(=O)N(O)CCCCCNC(=O)CCC(=O)N(O)CCCCCNC(=O)CCC(=O)N(O)CCCCCN [DFO, desferrioxamine, reference compound]",27 ± 1%
3,"O=C(NN=Cc1ccccn1)c1ccccc1 [PCBH, 2-pyridylcarboxaldehyde benzoyl hydrazone]",54 ± 4%
4,"O=C(NN=Cc1ccccn1)c1cccs1 [PCTH, 2-pyridylcarboxaldehyde 2-thiophenecarboxyl hydrazone]",57 ± 6%

# Tested on: iron-regulatory proteins (IRPs)
# Assay: iron regulatory protein gel-retardation assay (IRP-RNA binding activity)
# Assay type: cell-based, human
# Settings: SK-N-MC cells, 20 hr incubation; chelators 25 μM, DFO 100 μM, FAC 100 μg/ml
# Description: FIG. 5. The effect of the chelators on the RNA-binding activity of the iron-regulatory proteins (IRPs) in the SK-N-MC neuroepithelioma cells. Cells were incubated for 20 h with either medium alone (control), ferric ammonium citrate (FAC: 100 μg/ml), DFO (100 μM), or the other chelators (25 μM).
# A gel-retardation assay was used to measure the interaction between the IRPs and IRE using established techniques (Leibold et al., […]. Proc. Natl. Acad. Sci. USA 85 2171–5; Müllner et al., 1989 Cell 58 373–82). Briefly, after incubation with medium alone (control) or medium containing ferric ammonium citrate (100 μg/ml: Aldrich Ltd., Sydney, Australia) or the chelator. […] cells were washed with ice-cold phosphate-buffered saline (PBS) and lysed at 4° C. in 40 μl of ice-cold Munro extraction buffer (10 mM HEPES, pH 7.6, 3 mM MgCl2, 40 mM KCl, 5% glycerol, 1 MM dithiothreitol and 0.5% Nonidet P-40). After lysis, the samples were then centrifuged at 10,000 rpm for 3 mins at 4° C. to remove nuclei and the supernatant stored at −70° C. Frozen cytoplasmic extracts were thawed on ice and then centrifuged at 15,000 rpm for 10 min at 4° C. The protein concentration of the soluble supernatant was determined using the BioRad protein assay (BioRad Ltd., USA). Samples of cytoplasmic extracts were diluted to a protein concentration of 100 μg/ml in Munro buffer without Nonidet P-40 and 1 μg aliquots were analyzed for IRP by incubation with 0.1 ng (approximately 1×10^5 cpm) of ^32P-labelled pGL66 RNA transcript (Leibold et al., 1988). The riboprobe was transcribed in vitro from linearized plasmid templates using SP6 RNA polymerase in the presence of α-^32P UTP (Dupont, NEN). This latter reaction was performed using the Promega Riboprobe In Vitro Transcription Kit (Promega, Madison, Wis., USA). The probe was subsequently purified on a 6% urea/PAGE gel. To form RNA-protein complexes, cytoplasmic extracts containing 1 μg of protein were incubated for 10 mins at room temperature with the ^32P-labelled riboprobe. Unprotected probe was degraded by incubation with 1 U of RNAse T1 for 10 mins at room temperature. Heparin (Sigma) at a final concentration of 5 mg/ml was then added and incubated with the extract for another 10 min at room temperature to exclude non-specific binding. RNA-protein complexes were analyzed in 6% non-denaturing polyacrylamide gels at 4° C. as described by Konarska et al., 1986, Cell 46 845–55. Gels were dried, covered in plastic film and exposed to Kodak XAR films at −70° C. with an intensifying screen.
# An important effect of intracellular Fe depletion using DFO is the activation of RNA-binding activity of the iron regulatory proteins (IRP's) (Hentze et al., 1996, Proc. Natl. Acad. Sci. USA 93 8175–82). […] The present inventors examined the effect of a 20 hr incubation with 311, PIH and the PCIH analogues (25 μM) on IRP-RNA binding activity in SK-N-MC cells. In all experiments, DFO (100 μM) was used as a positive control to deplete cells of Fe and increase IRP-RNA binding activity. In contrast, ferric ammonium citrate (FAC: 100 μg/ml) was used to donate Fe to cells and reduce IRP-RNA binding.
row,Structure (SMILES),IRP-RNA binding activity compared to the control (FIG. 5)
1,"O=C(NN=Cc1c(O)ccc2ccccc12)c1ccncc1 [Chelator 311, 2-hydroxy-1-naphthylaldehyde isonicotinoyl hydrazone, reference compound]",marked increase
2,"CC(=O)N(O)CCCCCNC(=O)CCC(=O)N(O)CCCCCNC(=O)CCC(=O)N(O)CCCCCN [DFO, desferrioxamine, reference compound]",increase
3,"O=C(NN=Cc1ccco1)c1ccncc1 [FIH, 2furoylcarboxaldehyde isonicotinoyl hydrazone]",decreased
4,"O=C(NN=Cc1ccccn1)c1ccccc1 [PCBH, 2-pyridylcarboxaldehyde benzoyl hydrazone]",marked increase
5,"O=C(NN=Cc1ccccn1)c1cccs1 [PCTH, 2-pyridylcarboxaldehyde 2-thiophenecarboxyl hydrazone]",marked increase
